Test results taken from paper PMC12300041, “Tricyclic Isatin Derivatives as Anti-Inflammatory Compounds with High Kinase Binding Affinity” (Molecules, 2025).
Where two headings read alike, the source gives them in different places.

Columns and labels:
IL-6 production = test: LPS-induced IL-6 production in MonoMac-6 cells (ELISA); assay type: cell-based; details: Homo sapiens, MONO-MAC-6, 24 h, N.A.: not active at the highest tested concentration (50 μM)
Procedure: Human MonoMac-6 monocyte/macrophage cells (Deutsche Sammlung von Mikroorganismen und Zellkulturen GmbH, Braunschweig, Germany) were cultured in RPMI 1640 medium containing 10% (v/v) FBS, 10 μg/mL bovine insulin, 100 μg/mL streptomycin, and 100 U/mL penicillin.
An IL-6 ELISA kit (BD Biosciences, San Jose, CA, USA) was used to assess the effect of selected compounds on IL-6 production. MonoMac-6 cells were plated in 96-well plates at a density of 2 × 10^5 cells/well in culture medium supplemented with 3% (v/v) endotoxin-free FBS. Cells were pretreated with test compound or DMSO for 30 min, followed by addition of 200 ng/mL LPS for 24 h. For selected compounds, the IC50 for cytokine production was calculated by plotting percentage inhibition against the logarithm of inhibitor concentration (at least five points).

IRAK1 = biological target: T1, IRAK1 (Homo sapiens, UniProt P51617); test: KINOMEscan; assay type: binding
T1 construct: purchased Eurofins Pharma Discovery (KINOMEscan)
Procedure: (§1) Kinase profiling was performed by KINOMEscan (Eurofins Pharma Discovery, San Diego, CA, USA), using a panel of 423 protein kinases, as described previously. Compounds were submitted for dissociation constant (Kd) determination toward several target kinases using KINOMEscan. […] Binding reactions were performed at room temperature for 1 h, and the fraction of kinase not bound to the test compound was determined by capture with an immobilized affinity ligand and quantified by quantitative polymerase chain reaction. The primary screening at fixed concentrations of the compound was performed in duplicate. For dissociation constant Kd determination, a 12-point half-log dilution series (a maximum concentration of 33 μM) was used.

NEK10 = biological target: T2, NEK10 (Homo sapiens, UniProt Q6ZWH5); test: KINOMEscan; assay type: binding; details: for Kd: NEK10, N.B.: no binding at concentrations up to 30 µM
T2 construct: purchased Eurofins Pharma Discovery (KINOMEscan)
T2 sequence (Q6ZWH5 1-1172): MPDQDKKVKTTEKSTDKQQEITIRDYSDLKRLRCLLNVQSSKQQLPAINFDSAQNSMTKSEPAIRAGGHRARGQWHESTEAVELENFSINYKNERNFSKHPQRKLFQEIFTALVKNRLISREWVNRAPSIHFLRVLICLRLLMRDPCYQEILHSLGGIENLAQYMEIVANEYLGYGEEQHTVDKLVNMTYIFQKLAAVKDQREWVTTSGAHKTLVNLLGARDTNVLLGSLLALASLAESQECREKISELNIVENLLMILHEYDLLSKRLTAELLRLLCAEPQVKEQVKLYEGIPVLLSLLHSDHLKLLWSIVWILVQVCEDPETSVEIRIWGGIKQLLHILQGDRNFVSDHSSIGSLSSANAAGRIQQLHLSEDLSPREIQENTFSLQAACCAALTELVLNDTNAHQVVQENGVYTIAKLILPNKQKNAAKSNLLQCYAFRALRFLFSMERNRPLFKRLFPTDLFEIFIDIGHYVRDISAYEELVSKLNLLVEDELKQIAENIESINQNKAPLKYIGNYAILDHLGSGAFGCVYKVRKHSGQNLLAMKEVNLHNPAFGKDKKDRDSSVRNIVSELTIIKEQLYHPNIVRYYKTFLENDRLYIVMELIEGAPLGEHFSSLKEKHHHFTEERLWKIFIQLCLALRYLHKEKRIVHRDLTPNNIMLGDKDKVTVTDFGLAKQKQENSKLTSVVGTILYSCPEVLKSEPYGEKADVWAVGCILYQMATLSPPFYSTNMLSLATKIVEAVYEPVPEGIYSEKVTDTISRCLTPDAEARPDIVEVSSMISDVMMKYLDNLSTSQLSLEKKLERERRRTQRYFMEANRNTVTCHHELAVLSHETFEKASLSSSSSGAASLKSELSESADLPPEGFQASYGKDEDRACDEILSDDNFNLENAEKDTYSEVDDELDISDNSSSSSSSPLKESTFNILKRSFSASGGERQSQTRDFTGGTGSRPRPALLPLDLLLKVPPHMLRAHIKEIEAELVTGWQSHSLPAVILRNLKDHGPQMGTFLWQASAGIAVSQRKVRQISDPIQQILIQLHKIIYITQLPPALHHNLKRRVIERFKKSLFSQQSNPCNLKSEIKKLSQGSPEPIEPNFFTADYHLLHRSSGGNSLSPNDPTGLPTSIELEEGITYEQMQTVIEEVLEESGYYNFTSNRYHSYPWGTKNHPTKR
Procedure: as §1

DYRK1A = biological target: T3, DYRK1A (Homo sapiens, UniProt Q13627); test: KINOMEscan; assay type: binding; details: for Kd: DYRK1A, N.B.: no binding at concentrations up to 30 µM
T3 construct: purchased Eurofins Pharma Discovery (KINOMEscan)
Procedure: as §1

[1] = system: proinflammatory cytokine production; test: Multiplex human cytokine ELISA, LPS-stimulated MonoMac-6 cells; assay type: cell-based; details: 10 μM compound, 24 h, versus DMSO-treated control
From the text: A multiplex human cytokine ELISA kit from Anogen (Mississauga, ON, Canada) was used to evaluate various cytokines (IL-1α, IL-1β, IL-6, GM-CSF, MCP-1, IFN-γ, and TNF) in the supernatants of MonoMac-6 cells.

[2] = system: NF-κB/AP-1 transcriptional activity; test: LPS-induced NF-κB/AP-1 reporter (secreted alkaline phosphatase) in THP-1Blue cells; assay type: cell-based, human; details: 250 ng/mL LPS, N.A.: not active at the highest tested concentration (50 μM), read-out: AP Production (THP-1 Cells) IC50
Procedure: Human THP-1Blue monocytic cells stably transfected with a secreted embryonic alkaline phosphatase gene that is under control of a NF-κB/AP-1-inducible promoter were obtained from InvivoGen (San Diego, CA, USA). These cells were cultured in RPMI 1640 medium (Mediatech Inc., Herndon, VA, USA) containing 10% (v/v) fetal bovine serum (FBS), 100 μg/mL streptomycin, 100 U/mL penicillin, 100 μg/mL phleomycin (Zeocin), and 10 μg/mL blasticidin S (all from Sigma-Aldrich, St. Louis, MO, USA).
After incubation of THP-1Blue cells (2 × 10^5 cells/well) with test compounds or control DMSO (1% final concentration) for 30 min, 250 ng/mL of lipopolysaccharide (LPS; from Escherichia coli strain 0111:B4) was added, and the cells were incubated for 24 h. Secreted alkaline phosphatase activity was assessed in the cell supernatants using the QUANTI-Blue mix (InvivoGen; absorbance at 655 nm) and compared with positive controls treated with LPS alone. Compound concentrations that inhibited 50% of the NF-κB reporter activity (IC50) were determined.

[3] = IRAK1, N.B.: no binding at concentrations up to 30 µM

T1 sequence (P51617 whole entry): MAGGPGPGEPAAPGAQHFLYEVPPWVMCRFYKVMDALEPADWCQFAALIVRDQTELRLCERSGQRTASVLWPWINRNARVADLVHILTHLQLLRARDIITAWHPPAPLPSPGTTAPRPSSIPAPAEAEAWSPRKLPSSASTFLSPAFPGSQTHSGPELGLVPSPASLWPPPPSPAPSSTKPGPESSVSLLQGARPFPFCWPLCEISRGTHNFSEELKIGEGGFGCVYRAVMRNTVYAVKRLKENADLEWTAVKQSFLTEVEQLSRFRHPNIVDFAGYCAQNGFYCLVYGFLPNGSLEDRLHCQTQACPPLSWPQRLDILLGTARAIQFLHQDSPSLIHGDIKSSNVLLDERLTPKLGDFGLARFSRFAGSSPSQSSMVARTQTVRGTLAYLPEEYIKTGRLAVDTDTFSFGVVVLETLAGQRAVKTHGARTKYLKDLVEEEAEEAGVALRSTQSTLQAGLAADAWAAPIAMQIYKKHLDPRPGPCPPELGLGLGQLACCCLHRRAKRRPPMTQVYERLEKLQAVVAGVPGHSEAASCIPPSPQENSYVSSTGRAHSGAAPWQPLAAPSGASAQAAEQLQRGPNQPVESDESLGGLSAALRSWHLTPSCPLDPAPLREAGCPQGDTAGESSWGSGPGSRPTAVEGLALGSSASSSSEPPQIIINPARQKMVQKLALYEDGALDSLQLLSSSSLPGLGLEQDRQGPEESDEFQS

Kd (µM) (IRAK1; [3])	Structure (SMILES)	IC50 (IL-6 production)	Kd (NEK10)	Kd (DYRK1A)	inhibition of secretion of IL-1α, IL-1β, IL-6, TNF and MCP-1 [1]	IC50 ([2]; 24 h)	IC50 ([2]; Homo sapiens, THP-1, 24 h)	inhibition at 10 µM (IRAK1; 10 μM)	Kd (IRAK1; [3])	inhibition at 10 µM (NEK10; 10 μM)	inhibition at 10 µM (DYRK1A; 10 μM)
N.B.	O=C1Nc2c(ccc3c2CCCC3)C1=NO [Compound 5a, 3-(Hydroxyimino)-1,3,6,7,8,9-hexahydro-2H-benzo[g]indol-2-one]	48.3 ± 4.4 µM	3.2 ± 1 µM	0.85 ± 0.12 µM	less effective	6 ± 1.3 µM	< 6.1 µM	–	–	–	–
–	O=C1Nc2c(cc([N+](=O)[O-])c3c2CCCC3)C1=NO [Compound 5d, 3-(Hydroxyimino)-5-nitro-1,3,6,7,8,9-hexahydro-2H-benzo[g]indol-2-one]	12.6 ± 3.2 µM	0.66 ± 0.071 µM	0.435 ± 0.078 µM	inhibited	5.5 ± 1.4 µM	< 6.1 µM	99.2%	0.67 ± 0.113 µM	100%	98.8%
